ChEMBL document CHEMBL4311957, “Recent advances in natural antifungal flavonoids and their derivatives” (Bioorg Med Chem Lett, 2019)
Converted amounts (≈) assume the structure as drawn. One block for each molecule: values may come before it.

How the values were obtained:
Candida albicans [1] = assay: Antifungal activity against FLC-resistant Candida albicans; format: functional
Nakaseomyces glabratus [2] = assay: Antifungal activity against Candida glabrata; format: functional
Nakaseomyces glabratus [3] = assay: Antifungal activity against Candida glabrata 587 by microdilution method; format: functional
Candida parapsilosis [4] = assay: Antifungal activity against Candida parapsilosis 90/2224; format: functional; conditions: Lodderomyces parapsilosis
Pichia kudriavzevii [5] = assay: Antifungal activity against Candida krusei CK25; format: functional
Nakaseomyces glabratus [6] = assay: Antifungal activity against Candida glabrata 510 by microdilution method; format: functional
Candida albicans [7] = assay: Antifungal activity against Candida albicans NBRC 1385 by microdilution method; format: functional
Candida parapsilosis [8] = assay: Antifungal activity against Candida parapsilosis 96 by microdilution method; format: functional; conditions: Lodderomyces parapsilosis
Candida albicans [9] = assay: Antifungal activity against Candida albicans 53 by microdilution method; format: functional
[10] = system: Trichophyton mentagrophytes; assay: Antifungal activity against Trichophyton mentagrophytes IFM 46027 by microdilution method; format: functional
Candida albicans [11] = assay: Antifungal activity against Candida albicans 501 by microdilution method; format: functional
Nakaseomyces glabratus [12] = assay: Antifungal activity against Candida glabrata ATCC 90030; format: functional
Nakaseomyces glabratus [13] = assay: Antifungal activity against Candida glabrata 482 by microdilution method; format: functional
Candida tropicalis [14] = assay: Antibiofilm activity against Candida tropicalis by CSLM based method; format: functional
Nakaseomyces glabratus [15] = assay: Antifungal activity against Candida glabrata 507 by microdilution method; format: functional
Pichia kudriavzevii [16] = assay: Antifungal activity against Candida krusei 168 by microdilution method; format: functional
Candida albicans [17] = assay: Antibiofilm activity against Candida albicans by CSLM based method; format: functional
Candida parapsilosis [18] = assay: Antifungal activity against Candida parapsilosis ATCC 22014; format: functional; conditions: Lodderomyces parapsilosis
Candida albicans [19] = assay: Antifungal activity against Candida albicans; format: functional, organism-based
Aspergillus fumigatus = assay: Antifungal activity against Aspergillus fumigatus NBRC 4400 by microdilution method; format: functional
Nakaseomyces glabratus [20] = assay: Antifungal activity against Candida glabrata 531 by microdilution method; format: functional
Nakaseomyces glabratus [21] = assay: Antifungal activity against Candida glabrata WT-5; format: functional
Candida tropicalis [22] = assay: Antifungal activity against Candida tropicalis 166 by microdilution method; format: functional
Pichia kudriavzevii [23] = assay: Antifungal activity against Candida krusei; format: functional
Pichia kudriavzevii [24] = assay: Antifungal activity against Candida krusei ATCC 6258; format: functional
Candida albicans [25] = assay: Antifungal activity against Candida albicans 498 by microdilution method; format: functional
Candida albicans [26] = assay: Antifungal activity against Candida albicans ATCC 10231 by microdilution method; format: functional
Nakaseomyces glabratus [27] = assay: Antifungal activity against Candida glabrata 493 by microdilution method; format: functional
Candida parapsilosis [28] = assay: Antifungal activity against Candida parapsilosis; format: functional; conditions: Lodderomyces parapsilosis
Trichophyton rubrum [29] = assay: Antifungal activity against Trichophyton rubrum NBRC 5467 by microdilution method; format: functional
Candida albicans [30] = assay: Antifungal activity against Candida albicans SC 5314 after 48 hrs by checkerboard method; format: functional; conditions: SC 5314, 48 h
Candida albicans [31] = assay: Antifungal activity against Candida albicans clinical isolates after 48 hrs by checkerboard method; format: functional
Nakaseomyces glabratus [32] = assay: Antifungal activity against Candida glabrata after 48 hrs by checkerboard method; format: functional
Trichophyton rubrum [33] = assay: Antifungal activity against Trichophyton rubrum ATCC MYA3108 by CLSI-based microdilution method; format: functional
Trichophyton rubrum [34] = assay: Antifungal activity against Trichophyton rubrum deltaTruMDR2 by CLSI-based microdilution method; format: functional
[35] = Inhibition of fatty acid synthase in Trichophyton rubrum deltaTruMDR2
[36] = Inhibition of fatty acid synthase in Trichophyton rubrum ATCC MYA3108
Candida albicans [37] = assay: Antifungal activity against Candida albicans ATCC 90028 after 18 hrs by two-fold microdilution method; format: functional; conditions: ATCC 90028, 18 h
Candida parapsilosis [38] = assay: Antifungal activity against Candida parapsilosis ATCC 22019 after 18 hrs by two-fold microdilution method; format: functional; conditions: Lodderomyces parapsilosis, ATCC 22019, 18 h
Pichia kudriavzevii [39] = assay: Antifungal activity against Candida krusei ATCC 6258 after 18 hrs by two-fold microdilution method; format: functional; conditions: ATCC 6258, 18 h
Nakaseomyces glabratus [40] = assay: Antifungal activity against Candida glabrata ATCC 90030 after 18 hrs by two-fold microdilution method; format: functional; conditions: ATCC 90030, 18 h

SMILES: O=c1cc(-c2ccccc2)oc2cc(O)c(O)c(O)c12 [BAICALEIN]
MIC (Candida albicans [1]): 13 to 26 µg/mL (≈ 48.1 to 96.2 µM)
MIC (Nakaseomyces glabratus [2]): 2.7 µg/mL (≈ 9.99 µM)
MIC (Nakaseomyces glabratus [3]): 1.9 µg/mL (≈ 7.03 µM)
MIC (Candida parapsilosis [4]): 5.4 µg/mL (≈ 20 µM)
MIC (Pichia kudriavzevii [5]): 2.7 µg/mL (≈ 9.99 µM)
MIC (Nakaseomyces glabratus [6]): 1.9 µg/mL (≈ 7.03 µM)
MIC (Candida albicans [7]): 30 µM (≈ 8.11 µg/mL)
MIC (Candida parapsilosis [8]): 5.2 to 13 µg/mL (≈ 19.2 to 48.1 µM)
MIC50 (Candida parapsilosis [8]): 13 to 104 µg/mL (≈ 48.1 to 385 µM)
MIC (Candida albicans [9]): 10.4 µg/mL (≈ 38.5 µM)
MIC [10]: 60 µM (≈ 16.2 µg/mL)
MIC (Candida albicans [11]): 10.4 µg/mL (≈ 38.5 µM)
MIC (Nakaseomyces glabratus [12]): 52.7 µg/mL (≈ 195 µM)
MIC (Nakaseomyces glabratus [13]): 1.9 µg/mL (≈ 7.03 µM)
MIC (Candida tropicalis [14]): 52 to 104 µg/mL (≈ 192 to 385 µM)
MIC (Nakaseomyces glabratus [15]): 1.9 µg/mL (≈ 7.03 µM)
MIC (Pichia kudriavzevii [16]): 21 µg/mL (≈ 77.7 µM)
MIC50 (Candida albicans [17]): 4 to 32 µg/mL (≈ 14.8 to 118 µM)
MIC (Candida parapsilosis [18]): 5.4 µg/mL (≈ 20 µM)
MIC (Candida albicans [19]): 5.4 µg/mL (≈ 20 µM)
MIC (Aspergillus fumigatus): 230 µM (≈ 62.2 µg/mL)
MIC (Nakaseomyces glabratus [20]): 1.9 µg/mL (≈ 7.03 µM)
MIC (Nakaseomyces glabratus [21]): 52.7 µg/mL (≈ 195 µM)
MIC (Candida tropicalis [22]): 10.4 µg/mL (≈ 38.5 µM)
MIC50 (Candida tropicalis [22]): 13 to 104 µg/mL (≈ 48.1 to 385 µM)
MIC (Pichia kudriavzevii [23]): 2.7 µg/mL (≈ 9.99 µM)
MIC (Pichia kudriavzevii [24]): 2.7 µg/mL (≈ 9.99 µM)
MIC (Candida albicans [25]): 10.4 µg/mL (≈ 38.5 µM)
MIC (Candida albicans [26]): 10.4 µg/mL (≈ 38.5 µM)
MIC (Nakaseomyces glabratus [27]): 1.9 µg/mL (≈ 7.03 µM)
MIC (Candida parapsilosis [28]): 5.4 µg/mL (≈ 20 µM)
MIC (Trichophyton rubrum [29]): 120 µM (≈ 32.4 µg/mL)

MIC (Candida albicans [30]): 500 µg/mL
MIC (Candida albicans [31]): 500 µg/mL
MIC (Nakaseomyces glabratus [32]): 250 µg/mL
SMILES: O=C(O)[C@H]1O[C@@H](Oc2cc3oc(-c4ccccc4)cc(=O)c3c(O)c2O)[C@H](O)[C@@H](O)[C@@H]1O [BAICALIN]

SMILES: O=C(/C=C/c1ccccc1)c1ccccc1 [CHALCONE]
MIC (Trichophyton rubrum [33]): 7.5 µg/mL (≈ 36 µM)
MIC (Trichophyton rubrum [34]): 1.9 µg/mL (≈ 9.12 µM)
IC50 [35]: 17.1 µg/mL (≈ 82.1 µM)
IC50 [36]: 68.23 µg/mL (≈ 328 µM)

MIC (Candida albicans [37]): 7.81 µg/mL (≈ 23.2 µM)
MIC (Candida parapsilosis [38]): 7.81 µg/mL (≈ 23.2 µM)
MIC (Pichia kudriavzevii [39]): 7.81 µg/mL (≈ 23.2 µM)
MIC (Nakaseomyces glabratus [40]): 7.81 µg/mL (≈ 23.2 µM)
SMILES: CC1(C)C=Cc2c(cc(O)c3c(=O)c(-c4ccc(O)cc4)coc23)O1 [DERRONE]
